# pIC50: −log10 of the molar value. Structures can show the parent of a compound that is named as a salt.
# Experiments:
# [1] = tested on: lymphocytic leukemia P388; experiment: In vivo lymphocytic leukemia P388 test; set-up: species or system CD2 F1 mice; settings: Mus musculus, P388, ip, intraperitoneal, once daily for five days, survival time treated/control, read-out: P388 in vivo T/C × 100
# Procedure: Another test protocol is the in vivo lymphocytic leukemia P388 test. the animals used are either male or female CD2 F1 mice, six or seven animals per test group. The tumor transplant is by intraperitoneal injection of dilute ascitic fluid containing cells of lymphocytic leukemia P388. The test compounds are administered intraperitoneally once daily for five consecutive days at various doses following tumor inoculation. The animals are weighed and survivors are recorded on a regular basis for 30 days. A compound is designated "toxic" if, at a given dose, all animals die prior to four days after the first injection of drug. A ratio of survival time for treated (T)/control (C) animals is calculated. A criterion for efficacy is a ratio T/C times 100 greater than or equal to 125. See Cancer Chemotherapy Reports, Part 3, 3, 1 (1972) for a comprehensive discussion of the protocol.
# [2] = tested on: L1210 murine leukemia cell lines; experiment: In vitro antitumor screening (PDC test), L1210 murine leukemia cell growth; format: cell-based; settings: Mus musculus, 72 h; L1210 cells, 37° C., three days; value is ID50 multiplied by 10^7
# Procedure: Another test protocol is the in vitro antitumor screening (PDC test) of compounds of the present invention on L1210 murine leukemia cell lines. L1210 cells, a murine leukemia cell line, were grown in RPMI 1640 supplemented with 5% fetal bovine serum and gentamicin (50 μg/ml).
# Drug dilutions were prepared in the apropriate solvent and 20 μl of each dilution were added to 24-well Linbro tissue culture plats, followed by the addition of M 2.0 ml of cell suspension containing 3×10^4 cells per ml. Solvent and medium controls were included in each test. After incubation at 37° C. for three days in 5% CO2, the contents of each well were removed and the cells counted in a ZBI Coulter counter. Percent growth was calculated relative to the controls and the levels of drug activity wre expressed as ID50 in moles per liter using probit paper.
# HCT-8 cells = experiment: In vitro proliferating human colon adenocarcinoma (HCA) cell screen, HCT-8 cells; format: cell-based; settings: 60-65 hours at 37° C., value is ID50 multiplied by 10^7;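 note: ID50 is the molar concentration giving 50% growth inhibition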
# Procedure: One test protocol is the in vitro proliferating human colon adenocarcinoma (HCA) cell screen. In this test, HCT-8 cells (HCA cell line received from Yale University) are trypsinized using trypsin-EDTA. A single cell suspension is achieved by passing the cells through a 26-gauge needle with a 20-cc syringe. A cell suspension is prepared using RPMI 1640+10% FCS+50 μg/ml gentamicin sulfate with a cell concentration of approximately 5,000 cells/ml. The cell suspension is dispensed in Linbro 24-well plates; 1 ml/well. The plates are incubated for approximately 48 hours at 37° C. in a 5% CO2 atmosphere. At this time test compounds are added in the appropriate concentration. Ten μl of the appropriate dilution is added to each well for a titration test. The plates are reincubated an additional 60-65 hours at 37° C. in a 5% CO2 atmosphere. The cells are lysed using a mix of cationic surfactant, glacial acetic acid and sodium chloride. Two ml of the lysed cell suspension from each well is added to 8 ml of diluent. The number of nuclei is determined using a Coulter counter (ZBI model), and a percent growth for each drug concentration is calculated.
# Streptococcus pneumoniae = experiment: In vitro antibacterial (ABMF) microdilution test, Streptococcus pneumoniae; format: cell-based; settings: Mueller-Hinton broth, 37° C., 16-24 hours, read-out: ABMF minimal inhibitory conc, S. pneu.
# Source text: (§1) Still another test protocol is the in vitro antibacterial (ABMF) test which is a recognized standard microdilution susceptibility procedure in Mueller-Hinton broth against Gram-positive and Gram-negative bacterial test organisms. The procedure is a modification of a state-of-the-art procedure reported in Manual of Clinical Microbiology, Lennette, E. H., ed., by Barry, A. L. and C. Thornsberry at pages 463-474 and by Gavan, T. L. and A. L. Barry at pages 459-462, American Society for Microbiology, Washington, 1980.
# (§2) In the test, a given bacterial culture is used to inoculate individual test wells of microdilution trays containing growth medium and test compound, the latter in a microdilution series: 1000, 333, 111, 37, 12, 4, 1.4, and 0.46 micrograms per milliliter. […] For convenience, values are reported for Escherichia coli, Corynebacterium Sp. ATCC 21698, Branhamella catarrhalis, Streptococcus pneumoniae, and Bacillus cereus.
# Branhamella catarrhalis = experiment: In vitro antibacterial (ABMF) microdilution test, Branhamella catarrhalis; format: cell-based; settings: Moraxella catarrhalis; Mueller-Hinton broth, 37° C., 16-24 hours; read-out: ABMF minimal inhibitory conc, B. cat.
# Source text: as §1, §2
# Escherichia coli = experiment: In vitro antibacterial (ABMF) microdilution test, Escherichia coli; format: cell-based; settings: Mueller-Hinton broth, 37° C., 16-24 hours, read-out: ABMF minimal inhibitory conc, E. coli
# Source text: as §1, §2
# Bacillus cereus = experiment: In vitro antibacterial (ABMF) microdilution test, Bacillus cereus; format: cell-based; settings: Mueller-Hinton broth, 37° C., 16-24 hours, read-out: ABMF minimal inhibitory conc, B. cer.
# Source text: as §1, §2
# [3] = tested on: Corynebacterium Sp. ATCC 21698; experiment: In vitro antibacterial (ABMF) microdilution test, Corynebacterium Sp.; format: cell-based; settings: ATCC21698, Mueller-Hinton broth, 37° C., 16-24 hours, read-out: ABMF minimal inhibitory conc, Coryn. Species
# Source text: as §1, §2
pIC50 [2],pIC50 (HCT-8 cells),MIC (Streptococcus pneumoniae) [µg/mL],MIC (Branhamella catarrhalis) [µg/mL],MIC (Escherichia coli) [µg/mL],MIC (Bacillus cereus) [µg/mL],MIC [3] [µg/mL],SMILES,response vs control in vivo at 100 mg/kg [1] [%],response vs control in vivo at 200 mg/kg [1] [%],response vs control in vivo at 25 mg/kg [1] [%],response vs control in vivo at 50 mg/kg [1] [%],response vs control in vivo at 1.56 mg/kg ([1]; 1.56 mg/kg) [%],response vs control in vivo at 3.12 mg/kg ([1]; 3.12 mg/kg) [%],response vs control in vivo at 6.25 mg/kg ([1]; 6.25 mg/kg) [%],response vs control in vivo at 12.5 mg/kg [1] [%]
5.74,5.64,–,–,–,–,–,COc1ccc2c(c1)c(=O)c1c(NCCN(C)C)ccc([N+](=O)[O-])c1n2C [Example 33],137,144,–,–,–,–,–,–
6.38,–,1.4,1.4,4.1,4.1,< 0.46,"CCN(CC)CCNc1ccc([N+](=O)[O-])c2[nH]c3ccc(OC)c(Cl)c3c(=O)c12 [Example 27, 1-Chloro-8-[[2-Diethylamino)ethyl]amino]-2-methoxy-5-nitro-9(10H)acridinone, methanesulfonate]",–,–,–,–,–,–,–,–
6.35,–,< 0.46,< 0.46,12.3,12.3,< 0.46,"CCN(CC)CCNc1ccc([N+](=O)[O-])c2[nH]c3ccccc3c(=O)c12.CS(=O)(=O)O [Example 1, 1-[[2-(Diethylamino)ethyl]amino]-4-nitro-9-(10H)-acridinone, methanesulfonate (1:1)]",–,–,145,172,–,–,–,–
5.49,–,12.3,> 1000,37,> 1000,333,"CN(C)CCNc1ccc([N+](=O)[O-])c2c1c(=O)c1ccccc1n2C.CS(=O)(=O)O [Example 32, 1-[[2-(Dimethylamino)ethyl]amino]-10-methyl-4-nitro-9(10H)-acridinone, methanesulfonate (1:1)]",146,–,–,126,–,–,–,–
7.06,–,< 0.46,< 0.46,1.4,< 0.46,< 0.46,"CCN(CC)CCNc1ccc([N+](=O)[O-])c2[nH]c3cccc(O)c3c(=O)c12.CS(=O)(=O)O [Example 29, 1-[[2-(Diethylamino)ethyl]amino]-8-hydroxy-4-nitro-9-(10H)-acridinone, methanesulfonate]",–,–,–,–,–,–,–,–
7.82,–,333,333,111,111,333,"CN(C)CCCNc1ccc([N+](=O)[O-])c2[nH]c3ccc(OC(=O)C(C)(C)C)cc3c(=O)c12 [Example 25, [8-[[3-(Dimethylamino)propyl]amino]-9,10-dihydro-5-nitro-9-oxo-2-acridinyl]-2,2-dimethylpropanoate, methanesulfonate (1:1), hemihydrate]",–,–,–,–,156,173,214,248
6.44,–,< 0.46,< 0.46,1.4,1.4,< 0.46,"CCN(CC)CCNc1ccc([N+](=O)[O-])c2[nH]c3cc(O)ccc3c(=O)c12.CS(=O)(=O)O [Example 28, 1-[[2-(Diethylamino)ethyl]amino]-6-hydroxy-4-nitro-9(10H)acridinone, methanesulfonate (1:1)]",–,–,–,–,–,–,–,–
–,–,> 1000,> 1000,> 1000,> 1000,1000,"CCN(CC)CCNc1ccc([N+](=O)[O-])c2c1c(=O)c1cc(OC)ccc1n2C.CS(=O)(=O)O [Example 31, 1-[[2-(Diethylamino)ethyl]amino]-7-methoxy-10-methyl-4-nitro-9(10H)-acridinone, methanesulfonate (1:1)]",128,128,–,–,–,–,–,–
–,–,37,111,111,111,111,"CCN(CC)CCNc1ccc([N+](=O)[O-])c2c1c(=O)c1ccccc1n2C [Example 30, 1-[[2-(Diethylamino)ethyl]amino]-10-methyl-4-nitro-9(10H)-acridinone, methanesulfonate (1:1), hydrate (1:1)]",–,147,–,–,–,–,–,–
–,–,< 0.46,12.3,12.3,333,1.4,"COc1ccc2[nH]c3c([N+](=O)[O-])ccc(NCC[N+](C)(C)[O-])c3c(=O)c2c1 [Example 14, 1-[[2-(Dimethylamino)ethyl]amino]-7-methoxy-4-nitro-9(10H)-acridinone, N^ω -oxide, 3-chlorobenzoate salt]",–,–,–,157,–,–,–,–
–,5.71,1000,> 1000,> 1000,> 1000,0.46,"CCCOc1ccc2[nH]c3c([N+](=O)[O-])ccc(NCCN(CC)CC)c3c(=O)c2c1.CS(=O)(=O)O [Example 5, 1-[[2-(Diethylamino)ethyl]amino]-4-nitro-7-propoxy-9(10H)-acridinone, methanesulfonate]",164,186,136,146,–,–,–,122

SMILES,pIC50 [2],pIC50 (HCT-8 cells),MIC (Streptococcus pneumoniae) [µg/mL],MIC (Branhamella catarrhalis) [µg/mL],MIC (Escherichia coli) [µg/mL],MIC (Bacillus cereus) [µg/mL],MIC [3] [µg/mL],response vs control in vivo at 100 mg/kg [1] [%],response vs control in vivo at 200 mg/kg [1] [%],response vs control in vivo at 25 mg/kg [1] [%],response vs control in vivo at 50 mg/kg [1] [%],response vs control in vivo at 1.56 mg/kg ([1]; 1.56 mg/kg) [%],response vs control in vivo at 3.12 mg/kg ([1]; 3.12 mg/kg) [%],response vs control in vivo at 6.25 mg/kg ([1]; 6.25 mg/kg) [%],response vs control in vivo at 12.5 mg/kg [1] [%]
"CCCCOc1ccc2[nH]c3c([N+](=O)[O-])ccc(NCCN(C)C)c3c(=O)c2c1.CS(=O)(=O)O [Example 11, 7-Butoxy-1-[[2-(dimethylamino)ethyl]amino]-4-nitro-9(10H)-acridinone, methanesulfonate]",5.80,–,> 1000,> 1000,> 1000,> 1000,> 1000,–,–,130,175,–,–,–,–
"CCCCOc1ccc2[nH]c3c([N+](=O)[O-])ccc(NCCN(CC)CC)c3c(=O)c2c1.CS(=O)(=O)O [Example 6, 7-Butoxy-1-[[2-(diethylamino)ethyl]amino]-4-nitro-9-(10H)-acridinone, methanesulfonate]",6.24,–,> 1000,> 1000,> 1000,> 1000,> 1000,–,–,139,160,–,–,–,–

# From patent US4626540A, “Substituted 1-amino-4-nitro-acridinones and methods of treating bacterial infections and leukemia with them” (Warner-Lambert Company, priority 1984, dated 1986)
